# In patent publication US7151180B2, “Potassium channel modulators” (Bristol-Myers Squibb Company, priority 2003, dated 2006):
# Experiments:
# [1] = system: rabbit corpus cavernosum tissue; assay: Relaxation of rabbit corpus cavernosum strips (phenylephrine-induced force); settings: Oryctolagus cuniculus, inhibition of phenylephrine (3 μM)-induced force compared to vehicle control, read-out: % Inhibition of force (RCC strips)
# Protocol: The ability of the compounds of the invention to relax rabbit corpus cavernosum tissue as a model for the treatment of erectile dysfunction is described as follows. New Zealand white rabbits (3.4–3.7 kg) were euthanized by sodium pentobarbital (100 mg/kg) overdose. The penis from each animal was rapidly removed and immersed in a cold oxygenated modified Krebs Henseleit bicarbonate buffer. The penis' outer tunica was removed and the corpus cavernosum smooth muscle obtained and cut into strips approximately 3–5 mm long. The strips were suspended in tissue baths containing physiological salt solution (see above), and allowed to equilibrate for at least one hour under resting tension of 1.0 gram. Isometric force was measured as described above. Tissue strips were stimulated with the α-agonist phenylephrine (3 μM) and allowed to reach a steady level of force prior to the addition of test compounds. The results are expressed as the percentage inhibition of phenylephrine-induced force as compared to vehicle control.
# [2] = system: rat small intestine tissue; assay: Relaxation of rat small intestine (ileum) strips (nifedipine-sensitive force); settings: integral of nifedipine-sensitive force, 30 min post-compound
# From the text: The ability of the compounds of the invention to relax rat small intestine tissue as a model for the treatment of irritable bowel syndrome is described as follows. Male rats (Harlan, Sprague Dawley, 250–350 g) were sacrificed by decapitation. A portion of small intestine (ileum) was removed and the attached connective tissues and intestinal contents removed. The ileum was cut into segments of ≦1 cm in length. The segments were mounted longitudinally between fixed hooks in organ baths containing warm (37° C.) physiological salt solution (composition in mM: NaCl 118.4,KCl 4.7,KH2PO4 1.2,MgSO4 1.2,CaCl2 1.8,Glucose 10.1, NaHCO3 25; gassed with 95% O2/5% CO2, pH 7.4). A stable tension of ˜1.5 g was maintained in the tissue segments during the equilibration period of 45 minutes. Changes in muscle tension were measured with isometric force transducers (Grass, FT-03C) and recorded using AcqKnowledge data acquisition system (AcqKnowledge for MP100WS, Biopac Systems Inc., Goleta, Calif.). Compound or vehicle was added in the baths for 30 minutes. “Zero” active force was established at the end of the experiment using nifedipine (20 μM). The effects of compounds or vehicle on force was determined by measuring the integral of nifedipine-sensitive force (including resting tone and spontaneous contractions) pre- and 30 min post-compound (or vehicle) addition. Results are expressed as the percentage inhibition of force. DMSO vehicle inhibited force (integral) by −0.6±3.0% (n=25).
# [3] = system: cloned mammalian (mSlo or hSlo) BK channels expressed in Xenopus oocytes; assay: Assay for BK channel openers: two-electrode voltage clamp of BK-mediated outward current in Xenopus oocytes; assay type: cell-based; settings: at 20 μM; percent increase over BK current in controls; voltage step to +140 mV; 5–10 oocytes
# Protocol: The ability of the compounds of the invention to open BK channels and increase whole-cell outward (K^+) BK-mediated currents was assessed under voltage-clamp conditions by determining their ability to increase cloned mammalian (mSlo or hSlo) BK-mediated outward current heterologously expressed in Xenopus oocytes [Butler, A., et al., Science 1993, 261, 221–224; Dworetzky, S. I., et al., Mol. Brain Res. 1994, 27, 189–193; Gribkoff, V. K., et al., Mol. Phannacol. 1996, 50, 206–217]. The two BK constructs employed represent nearly structurally identical homologous proteins, and have proven to be pharmacologically indistinguishable in our tests. To isolate BK current from native (background, non-BK) current, the specific and potent BK channel-blocking toxin iberiotoxin (IBTX) [Galvez, A., et al., J. Biol. Chem. 1990, 265, 11083–11090] was employed at a supramaximal concentration, e.g., 50–100 nanomolar (“nM”). The relative contribution of BK channel-mediated current to total outward current was determined by subtraction of the current remaining in the presence of IBTX (non-BK current) from the current profiles obtained in all other experimental conditions (control, drug, and wash) [Gribkoff, V. K. et al., Mol. Pharmacol. 1996, 50, 206–217]. […] All compounds were tested in 5–10 oocytes and are reported at the indicated concentration of 20 micromolar (“μM”) (or as otherwise indicated); the effect of the selected compounds of the invention on BK current was expressed as the percent of control IBTX-sensitive current at a single transmembrane voltage (+140 mV) and is listed in Table 1.Recordings were accomplished using standard two-electrode voltage clamp techniques [Stuhmer, W., et al., Methods in Enzymology, 1992, 207, 319–339]; voltage-clamp protocols consisted of 500–750 milliseconds (“ms”) duration step depolarizations, from a holding potential of −60 mV, to a final voltage up to +140 mV in 20 mV steps. The experimental media (modified Barth's solution) consisted of millimolar (“mM”): NaCl (88), NaHCO3 (2.4), KCl (1.0), HEPES (10), MgSO4 (0.82), Ca(NO3)2 (0.33), CaCl2 (0.41); pH 7.5.
Structure (SMILES),inhibition [1] [%],% Inhibition of force (RSI strips) [2] [%],% MaxiK opening [3] [%],melting point [°C]
"Nc1ccc(Sc2c(-c3cc(Cl)ccc3O)c3cc(C(F)(F)F)ccc3[nH]c2=O)cc1 [Example 1, 3-[(4-Aminophenyl)thio]-4-(5-chloro-2-hydroxyphenyl)-6-(trifluoromethyl)-2(1H)-quinolinone]",27,10,392,
"Cn1c(=O)c(Sc2ccc(N)cc2)c(-c2cc(Cl)ccc2O)c2cc(C(F)(F)F)ccc21 [Example 2, 3-[(4-Aminophenyl)thio]-4-(5-chloro-2-hydroxyphenyl)-1-methyl-6-(trifluoromethyl)-2(1H)-quinolinone]",7,,144,
"O=c1[nH]c2ccc(C(F)(F)F)cc2c(-c2cc(Cl)ccc2O)c1Sc1ncccn1 [Example 3, 4-(5-Chloro-2-hydroxy-phenyl)-3-(pyrimidin-2-ylsulfanyl)-6-trifluoromethyl-1H-quinolin-2-one]",,,144,302 to 303
"O=c1[nH]c2ccc(C(F)(F)F)cc2c(-c2cc(Cl)ccc2O)c1Sc1ccncc1 [Example 4, 4-(5-Chloro-2-hydroxy-phenyl)-3-(pyridin-4-ylsulfanyl)-6-trifluoromethyl-1H-quinolin-2-one]",36,17,206,257 to 260
"Cn1cnnc1Sc1c(-c2cc(Cl)ccc2O)c2cc(C(F)(F)F)ccc2[nH]c1=O [Example 5, 4-(5-Chloro-2-hydroxy-phenyl)-3-(4-methyl-4H-[1,2,4]triazol-3-ylsulfanyl)-6-trifluoromethyl-4a,8a-dihydro-1H-quinolin-2-one]",35,,167,
"O=c1[nH]c2ccc(C(F)(F)F)cc2c(-c2cc(Cl)ccc2O)c1Sc1ccc(O)cc1 [Example 6, 4-(5-Chloro-2-hydroxyphenyl)-3-(4-hydroxyphenylsulfanyl)-6-trifluoromethyl-1H-quinolin-2-one]",8,21,307,180 to 190
"Nc1nnc(Sc2c(-c3cc(Cl)ccc3O)c3cc(C(F)(F)F)ccc3[nH]c2=O)s1 [Example 7, 3-(5-Amino-[1,3,4]thiadiazol-2-ylsulfanyl)-4-(5-chloro-2-hydroxyphenyl)-6-trifluoromethyl-1H-quinolin-2-one]",45,40,237,260 to 270
"O=c1[nH]c2ccc(C(F)(F)F)cc2c(-c2cc(Cl)ccc2O)c1SCc1ccc(O)cc1 [Example 8, 4-(5-Chloro-2-hydroxyphenyl)-3-(4-hydroxybenzylsulfanyl)-6-trifluoromethyl-1H-quinolin-2-one]",33,,227,206 to 208
"O=c1[nH]c2ccc(C(F)(F)F)cc2c(-c2cc(Cl)ccc2O)c1Sc1ccccc1O [Example 9, 4-(5-Chloro-2-hydroxyphenyl)-3-(2-hydroxyphenylsulfanyl)-6-trifluoromethyl-1H-quinolin-2-one]",,,145,290 to 292
"O=C(O)c1ccc(Sc2c(-c3cc(Cl)ccc3O)c3cc(C(F)(F)F)ccc3[nH]c2=O)cc1 [Example 10, 4-[4-(5-Chloro-2-hydroxy-phenyl)-2-oxo-6-trifluoromethyl-1,2-dihydro-quinolin-3-ylsulfanyl]-benzoic acid]",29,,209,
"COc1ccc(Cl)cc1-c1c(Sc2ccc(C(=O)O)cc2)c(=O)[nH]c2ccc(C(F)(F)F)cc12 [Example 11, 4-[4-(5-Chloro-2-methoxy-phenyl)-2-oxo-6-trifluoromethyl-1,2-dihydro-quinolin-3-ylsulfanyl]-benzoic acid]",,,177,
